Experimental data reported in patent US11572337B2, “Antibacterial agents: arylalkylcarboxamido phloroglucinols” (Rutgers, The State University of New Jersey, priority 2018, dated 2023).
In brackets after ≈: the same amount, converted by molar mass.

How the values were obtained:
[1] = tested on: Staphylococcus aureus ATCC 12600; assay: Inhibition of growth of Staphylococcus aureus (spiral gradient endpoint MIC assay); type: cell-based; details: ATCC12600, Mueller-Hinton II cation-adjusted agar, 16 h at 37° C., read-out: in vitro antibacterial activity S. aureus ATCC12600 MIC
From the text: Minimum inhibitory concentrations (MICs for Staphylococcus aureus ATCC 12600 were quantified using spiral gradient endpoint assays, essentially as described [Wallace, A. and Corkill, J. (1989) Application of the spiral plating method to study antimicrobial action. J. Microbiol. Meths. 10, 303-310; Paton, J., Holt, A., and Bywater, M. (1990) Measurement of MICs of antibacterial agents by spiral gradient endpoint compared with conventional dilution methods. Int. I Exp. Clin. Chemother. 3, 31-38; Schalkowsky S. (1994) Measures of susceptibility from a spiral gradient of drug concentrations. Adv. Exp. Med. Biol. 349, 107-120]. Assays employed exponential-gradient plates containing 150 mm×4 mm Mueller-Hinton II cation-adjusted agar and 0.4-100 μg/ml of test salt. Plates were prepared using an Autoplate 4000 spiral plater (Spiral Biotech, Inc.). Saturated overnight cultures were swabbed radially onto plates, and plates were incubated for 16 h at 37° C. For each culture, the streak length was measured using a clear plastic template (Spiral Biotech, Inc.), the test-salt concentration at the streak endpoint was calculated using the program SGE (Spiral Biotech, Inc.), and the MIC was defined as the calculated test-salt concentration at the streak endpoint.

[2] = target: E. coli RNA polymerase σ70 holoenzyme (Escherichia coli (strain K12), UniProt P0A8T7+P0A8V2); assay: Fluorescence-detected assay of inhibition of Escherichia coli RNA polymerase; type: biochemical; details: T4 N25 promoter DNA, RiboGreen fluorescence, read-out: RNAP-inhibitory activity E. coli RNAP IC50
Experimental: (§1) Fluorescence-detected RNA polymerase assays with E. coli RNA polymerase were performed by a modification of the procedure of Kuhlman et al., 2004 [Kuhlman, P., Duff, H. & Galant, A. (2004) A fluorescence-based assay for multisubunit DNA-dependent RNA polymerases. Anal. Biochem. 324, 183-190]. Reaction mixtures contained […]: […] test salt, 75 nM E. coli RNA polymerase σ^70 holoenzyme, 20 nM 384 bp DNA fragment containing the bacteriophage T4 N25 promoter, 100 μM ATP, 100 μM GTP, 100 μM UTP, 100 μM CTP, 50 mM Tris-HCl, pH 8.0, 100 mM KCl, 10 mM MgCl2, 1 mM DTT, 10 μg/ml bovine serum albumin, and 5.5% glycerol. Reaction components other than DNA and NTPs were pre-incubated for 10 min at 37° C. Reactions were carried out by addition of DNA and incubation for 5 min at 37° C., followed by addition of NTPs and incubation for 60 min at 37° C. DNA was removed by addition of 1 μl 5 mM CaCl2 and 2 U DNaseI (Ambion, Inc.), followed by incubation for 90 min at 37° C. RNA was quantified by addition of 100 μI RiboGreen RNA Quantitation Reagent (Invitrogen, Inc.; 1:500 dilution in Tris-HCl, pH 8.0, 1 mM EDTA), followed by incubation for 10 min at 25° C., followed by measurement of fluorescence intensity [excitation wavelength=485 nm and emission wavelength=535 nm; QuantaMaster QM1 spectrofluorometer (PTI, Inc.)]. IC50 is defined as the concentration of inhibitor resulting in 50% inhibition of RNA polymerase activity.

[3] = target: S. aureus RNA polymerase core enzyme + S. aureus σA (Staphylococcus aureus (strain NCTC 8325 / PS 47), UniProt P47768+Q2G0N5); assay: Fluorescence-detected assay of inhibition of Staphylococcus aureus RNA polymerase; type: biochemical; details: T4 N25 promoter DNA, RiboGreen fluorescence, read-out: RNAP-inhibitory activity S. aureus RNAP IC50
Experimental: as §1
Fluorescence-detected RNA polymerase assays with S. aureus RNA polymerase were performed as in Example 2.1, using reaction mixtures containing (20 μl): 0-100 nM test salt, 75 nM S. aureus RNA polymerase core enzyme, 300 nM S. aureus σ^A, 20 nM 384 bp DNA fragment containing the bacteriophage T4 N25 promoter, 100 μM ATP, 100 μM GTP, 100 μM UTP, 100 μM CTP, 40 mM Tris-HCl, pH 8.0, 80 mM NaCl, 5 mM MgCl2, 2.5 mM DTT, and 12.7% glycerol. IC50 is defined as the concentration of inhibitor resulting in 50% inhibition of RNA polymerase activity.

SMILES | MIC [1] | IC50 [2] | IC50 [3]
O=C(NCc1ccc(Cl)cc1)c1c(O)cc(O)cc1O [Compound 0MTK107, N-(4-chlorobenzyl)-2,4,6-trihydroxybenzamide] | > 40 µg/mL | 400 nM | 2000 nM
O=C(NCCc1ccc(Cl)cc1)c1c(O)cc(O)cc1O [Compound 0MTK127, N-(4-chlorophenethyl)-2,4,6-trihydroxybenzamide] | 20 µg/mL (≈ 65 µM) | 370 nM | 1500 nM
CN(CCc1ccc(Cl)cc1)C(=O)c1c(O)cc(O)cc1O [Compound 0MTK128, N-(4-chlorophenethyl)-2,4,6-trihydroxy-N-methylbenzamide] | > 20 µg/mL | 970 nM | > 100000 nM
CC(C)(CNC(=O)c1c(O)cc(O)cc1O)c1ccc(Cl)cc1 [Compound 0MTK146, N-(2-(4-chlorophenyl)-2-methylpropyl)-2,4,6-trihydroxybenzamide] | 22 µg/mL (≈ 65.5 µM) | 690 nM | 2700 nM
O=C(NCc1ccc(Oc2ccccc2)cc1)c1c(O)cc(O)cc1O [Compound 0MTK149, 2,4,6-trihydroxy-N-(4-phenoxybenzyl)benzamide] | 19 µg/mL (≈ 54.1 µM) | 140 nM | 1500 nM
O=C(NCc1ccc(Oc2ccc(F)cc2)cc1)c1c(O)cc(O)cc1O [Compound 0MTK154, N-(4-(4-fluorophenoxy)benzyl)-2,4,6-trihydroxybenzamide] | 15 µg/mL (≈ 40.6 µM) | 420 nM | 3500 nM
O=C(NCc1ccc(Oc2ccc(F)cc2)cc1C(F)(F)F)c1c(O)cc(O)cc1O [Compound 0MTK155, N-(4-(4-fluorophenoxy)-2-(trifluoromethyl)benzyl)-2,4,6-trihydroxybenzamide] | 8.1 µg/mL (≈ 18.5 µM) | 790 nM | 8100 nM
O=C(NCCc1ccc(Oc2ccc(F)cc2)cc1)c1c(O)cc(O)cc1O [Compound 0MTK156, N-(4-(4-fluorophenoxy)phenethyl)-2,4,6-trihydroxybenzamide] | 8.3 µg/mL (≈ 21.6 µM) | 820 nM | 5500 nM
O=C(NCc1ccc(Oc2ccccc2)cc1C(F)(F)F)c1c(O)cc(O)cc1O [Compound 0MTK158, 2,4,6-trihydroxy-N-(4-phenoxy-2-(trifluoromethyl)benzyl)benzamide] | 5.4 µg/mL (≈ 12.9 µM) | 220 nM | 1800 nM
O=C(NCc1ccc(Oc2ccc(F)cc2)c(Cl)c1)c1c(O)cc(O)cc1O [Compound 0MTK174, N-(3-chloro-4-(4-fluorophenoxy)benzyl)-2,4,6-trihydroxybenzamide] | 8.6 µg/mL (≈ 21.3 µM) | 410 nM | 14000 nM
O=C(NCc1ccc(Oc2ccc(F)cc2)c(F)c1)c1c(O)cc(O)cc1O [Compound 0MTK175, N-(3-fluoro-4-(4-fluorophenoxy)benzyl)-2,4,6-trihydroxybenzamide] | 8.6 µg/mL (≈ 22.2 µM) | 450 nM | 7000 nM
Cc1cc(Oc2ccc(F)cc2)ccc1CNC(=O)c1c(O)cc(O)cc1O [Compound 0MTK176, N-(4-(4-fluorophenoxy)-2-methylbenzyl)-2,4,6-trihydroxybenzamide] | 5.3 µg/mL (≈ 13.8 µM) | 390 nM | 12000 nM
COc1cc(Oc2ccc(F)cc2)ccc1CNC(=O)c1c(O)cc(O)cc1O [Compound 0MTK178, N-(4-(4-fluorophenoxy)-2-methoxybenzyl)-2,4,6-trihydroxybenzamide] | 7.8 µg/mL (≈ 19.5 µM) | 610 nM | 18000 nM
O=C(NCCc1ccc(Oc2cc(Cl)cc(Cl)c2)cc1)c1c(O)cc(O)cc1O [Compound 0MTK180, N-(4-(3,5-dichlorophenoxy)phenethyl)-2,4,6-trihydroxybenzamide] | 1.8 µg/mL (≈ 4.14 µM) | 830 nM | 6600 nM
O=C(NCc1ccc(Oc2ccc(F)cc2)cc1Cl)c1c(O)cc(O)cc1O [Compound 0MTK181, N-(2-chloro-4-(4-fluorophenoxy)benzyl)-2,4,6-trihydroxybenzamide] | 6.9 µg/mL (≈ 17.1 µM) | 1400 nM | > 60000 nM
O=C(NCCc1ccc(Oc2ccc(Cl)cc2)cc1)c1c(O)cc(O)cc1O [Compound 0MTK183, N-(4-(4-chlorophenoxy)phenethyl)-2,4,6-trihydroxybenzamide] | 6.1 µg/mL (≈ 15.3 µM) | 1700 nM | 14000 nM
O=C(NCCCc1ccc(Cl)cc1)c1c(O)cc(O)cc1O [Compound 0MTK204, N-(3-(4-chlorophenyl)propyl)-2,4,6-trihydroxybenzamide] | 27 µg/mL (≈ 83.9 µM) | 7000 nM | 8000 nM
O=C(NCCc1ccc(C(F)(F)F)cc1)c1c(O)cc(O)cc1O [Compound 0MTK207, 2,4,6-trihydroxy-N-(4-(trifluoromethyl)phenethyl)benzamide] | 19 µg/mL (≈ 55.7 µM) | 7400 nM | 13000 nM
COc1ccc(Oc2ccc(CCNC(=O)c3c(O)cc(O)cc3O)cc2)cc1 [Compound 0MTK260, 2,4,6-trihydroxy-N-(4-(4-methoxyphenoxy)phenethyl)benzamide] | – | 780 nM | 6200 nM
O=C(NCCc1ccc(Oc2ccc(N3CCOCC3)cc2)cc1)c1c(O)cc(O)cc1O [Compound 0MTK261, 2,4,6-trihydroxy-N-(4-(4-morpholinophenoxy)phenethyl)benzamide] | – | 1500 nM | 7500 nM
O=C(NCCc1ccc(Oc2cncnc2)cc1)c1c(O)cc(O)cc1O [Compound 0MTK262, 2,4,6-trihydroxy-N-(4-(pyrimidin-5-yloxy)phenethyl)benzamide] | – | 1500 nM | 7400 nM
O=C(NCCc1ccc(Oc2cccc(N3CCOCC3)c2)cc1)c1c(O)cc(O)cc1O [Compound 0MTK263, 2,4,6-trihydroxy-N-(4-(3-morpholinophenoxy)phenethyl)benzamide] | – | 1300 nM | 7100 nM
O=C(NCCc1ccc(Oc2cccnc2)cc1)c1c(O)cc(O)cc1O [Compound 0MTK264, 2,4,6-trihydroxy-N-(4-(pyridin-3-yloxy)phenethyl)benzamide] | – | 820 nM | 3800 nM
O=C(NCCc1ccc(Oc2ccncc2)cc1)c1c(O)cc(O)cc1O [Compound 0MTK265, 2,4,6-trihydroxy-N-(4-(pyridin-4-yloxy)phenethyl)benzamide] | – | 1300 nM | 6400 nM
O=C(NCCc1ccc(Oc2ccc(-c3ccncc3)cc2)cc1)c1c(O)cc(O)cc1O [Compound 0MTK266, 2,4,6-trihydroxy-N-(4-(4-(pyridin-4-yl)phenoxy)phenethyl)benzamide] | – | 1200 nM | 5100 nM
O=C(NCCc1ccc(Oc2ccc(-c3cccnc3)cc2)cc1)c1c(O)cc(O)cc1O [Compound 0MTK267, 2,4,6-trihydroxy-N-(4-(4-(pyridin-3-yl)phenoxy)phenethyl)benzamide] | – | 300 nM | 1700 nM
O=C(NC1CC1)c1cccc(Oc2ccc(CCNC(=O)c3c(O)cc(O)cc3O)cc2)c1 [Compound 0MTK268, N-(4-(3-(cyclopropylcarbamoyl)phenoxy)phenethyl)-2,4,6-trihydroxybenzamide] | – | 800 nM | 2900 nM
O=C(NCCc1ccc(Oc2cccc(-c3ccncc3)c2)cc1)c1c(O)cc(O)cc1O [Compound 0MTK269, 2,4,6-trihydroxy-N-(4-(3-(pyridin-4-yl)phenoxy)phenethyl)benzamide] | – | 700 nM | 3000 nM
